Experimental data published in ChEMBL document CHEMBL1909046, “DrugMatrix in vitro pharmacology data”.

How the values were obtained:
Substance-P receptor = Substance-P receptor (Homo sapiens, UniProt P25103); format: cell membranes, Membrane; conditions: cho; note: in other assays of this panel Not Active means under 50% inhibition at 10 µM
[1] = DRUGMATRIX: Glutamate, NMDA, Phencyclidine radioligand binding (ligand: [3H] TCP); format: cell membranes, Rattus norvegicus, Wistar, Cerebral cortex, Membrane; conditions: Not Active = under 50% inhibition at 10 µM
[2] = DRUGMATRIX: Sigma2 radioligand binding (ligand: [3H] Ifenprodil); format: cell membranes, Rattus norvegicus, Wistar, Brain, Membrane; conditions: Not Active = under 50% inhibition at 10 µM
[3] = target: Mitogen-activated protein kinase 14 (Homo sapiens, UniProt Q16539); parameters: species or system Escherichia coli;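 note: inhibition of p38alpha enzyme activity in a biochemical kinase assay, with myelin basic protein serving as substrate; in other assays of this panel Not Active means under 50% inhibition at 10 µM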
[4] = DRUGMATRIX: Platelet-Derived Growth Factor (PDGF) radioligand binding (ligand: [125I] PDGF); format: cell-based; conditions: nih3t3; Not Active = under 50% inhibition at 10 µM
[5] = DRUGMATRIX: Sodium/nucleoside co-transporter radioligand binding (ligand: nitrobenzylthioinosine); format: cell membranes, Cavia porcellus, Dunkin-Hartley, Cerebral cortex, Membrane; conditions: Not Active = under 50% inhibition at 10 µM
Vasopressin V1a receptor = Vasopressin V1a receptor (Homo sapiens, UniProt P37288); format: cell membranes, Membrane; conditions: hek293; note: in other assays of this panel Not Active means under 50% inhibition at 10 µM
Cytochrome P450 1A2 = target: T1, Cytochrome P450 1A2 (Homo sapiens, UniProt P05177); conditions: bti-tn-5b1-4; note: in other assays of this panel Not Active means under 50% inhibition at 10 µM
T1 sequence (P05177 whole entry): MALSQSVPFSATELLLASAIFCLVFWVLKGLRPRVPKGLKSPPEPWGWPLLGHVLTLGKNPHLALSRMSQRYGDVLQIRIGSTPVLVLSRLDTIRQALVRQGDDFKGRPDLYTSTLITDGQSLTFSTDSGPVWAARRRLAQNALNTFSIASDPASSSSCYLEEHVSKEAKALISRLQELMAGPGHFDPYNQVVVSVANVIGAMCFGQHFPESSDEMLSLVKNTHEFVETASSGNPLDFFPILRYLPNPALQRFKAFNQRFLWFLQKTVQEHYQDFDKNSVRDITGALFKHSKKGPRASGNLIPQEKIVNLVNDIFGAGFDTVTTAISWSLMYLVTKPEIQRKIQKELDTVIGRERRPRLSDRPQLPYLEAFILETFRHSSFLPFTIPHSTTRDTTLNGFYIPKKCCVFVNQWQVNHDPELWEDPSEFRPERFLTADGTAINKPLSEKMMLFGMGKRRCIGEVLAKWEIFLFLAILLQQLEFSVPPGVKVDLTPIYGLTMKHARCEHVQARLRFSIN

Vasopressin V1a receptor, sequence (P37288 whole entry): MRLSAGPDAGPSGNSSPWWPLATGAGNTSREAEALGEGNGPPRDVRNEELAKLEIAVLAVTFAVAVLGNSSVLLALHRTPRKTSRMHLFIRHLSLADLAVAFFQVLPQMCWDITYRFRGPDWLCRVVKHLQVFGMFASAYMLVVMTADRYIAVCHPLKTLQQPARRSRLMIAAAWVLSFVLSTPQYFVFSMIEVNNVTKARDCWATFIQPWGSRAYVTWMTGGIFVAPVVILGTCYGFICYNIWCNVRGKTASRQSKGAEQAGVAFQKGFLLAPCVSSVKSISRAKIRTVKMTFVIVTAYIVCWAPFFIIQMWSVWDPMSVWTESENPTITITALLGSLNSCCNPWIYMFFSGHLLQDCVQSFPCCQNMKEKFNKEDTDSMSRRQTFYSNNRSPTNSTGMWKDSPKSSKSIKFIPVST
Substance-P receptor, sequence (P25103 whole entry): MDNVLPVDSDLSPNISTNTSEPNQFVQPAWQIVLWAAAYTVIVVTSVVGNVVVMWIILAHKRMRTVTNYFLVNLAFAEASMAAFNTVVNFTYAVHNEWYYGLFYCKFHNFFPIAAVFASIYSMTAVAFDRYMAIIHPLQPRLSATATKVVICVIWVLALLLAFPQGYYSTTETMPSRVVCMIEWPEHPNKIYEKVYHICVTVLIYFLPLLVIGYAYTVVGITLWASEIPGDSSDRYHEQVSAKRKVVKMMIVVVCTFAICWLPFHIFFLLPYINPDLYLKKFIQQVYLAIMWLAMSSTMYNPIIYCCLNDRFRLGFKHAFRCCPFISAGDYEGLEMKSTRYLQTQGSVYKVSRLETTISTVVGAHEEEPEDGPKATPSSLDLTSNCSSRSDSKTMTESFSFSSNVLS
Mitogen-activated protein kinase 14, sequence (Q16539 whole entry): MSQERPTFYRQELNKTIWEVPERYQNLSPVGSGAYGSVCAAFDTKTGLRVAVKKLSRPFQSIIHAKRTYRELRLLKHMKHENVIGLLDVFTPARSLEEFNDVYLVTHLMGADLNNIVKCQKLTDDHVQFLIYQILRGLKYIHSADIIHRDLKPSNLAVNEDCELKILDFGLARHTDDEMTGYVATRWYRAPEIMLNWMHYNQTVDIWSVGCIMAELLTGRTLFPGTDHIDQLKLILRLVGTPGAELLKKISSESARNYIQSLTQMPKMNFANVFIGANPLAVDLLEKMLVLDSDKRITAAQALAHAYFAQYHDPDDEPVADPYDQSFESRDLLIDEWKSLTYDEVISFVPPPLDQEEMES

Nc1ccc(S(=O)(=O)Nc2ncccn2)cc1 [SULFADIAZINE]
Not Active: IC50 (Substance-P receptor) | IC50 [1] | Ki [1] | IC50 [2] | Ki [2] | IC50 [3] | IC50 [4] | Ki [4] | IC50 [5] | Ki [5] | IC50 (Vasopressin V1a receptor) | IC50 (Cytochrome P450 1A2) | Ki (Cytochrome P450 1A2)

COc1ncnc(NS(=O)(=O)c2ccc(N)cc2)c1OC [SULFADOXINE]
Not Active: IC50 (Substance-P receptor) | IC50 [1] | Ki [1] | IC50 [2] | Ki [2] | IC50 [3] | IC50 [4] | Ki [4] | IC50 [5] | Ki [5] | IC50 (Vasopressin V1a receptor) | IC50 (Cytochrome P450 1A2) | Ki (Cytochrome P450 1A2)

Nc1ccc(S(=O)(=O)Nc2nccs2)cc1 [SULFATHIAZOLE]
Not Active: IC50 (Substance-P receptor) | IC50 [1] | Ki [1] | IC50 [2] | Ki [2] | IC50 [3] | IC50 [4] | Ki [4] | IC50 [5] | Ki [5] | IC50 (Vasopressin V1a receptor) | IC50 (Cytochrome P450 1A2) | Ki (Cytochrome P450 1A2)

C[C@]12CC[C@H]3[C@@H](CCC4=CC(=O)CC[C@@]43C)[C@@H]1CC[C@@H]2O [TESTOSTERONE]
Not Active: IC50 (Substance-P receptor) | IC50 [1] | Ki [1] | IC50 [2] | Ki [2] | IC50 [3] | IC50 [4] | Ki [4] | IC50 [5] | Ki [5] | IC50 (Vasopressin V1a receptor) | IC50 (Cytochrome P450 1A2) | Ki (Cytochrome P450 1A2)

CC(C)(C)NC[C@H](O)COc1nsnc1N1CCOCC1 [TIMOLOL]
Not Active: IC50 (Substance-P receptor) | IC50 [1] | Ki [1] | IC50 [2] | Ki [2] | IC50 [3] | IC50 [4] | Ki [4] | IC50 [5] | Ki [5] | IC50 (Vasopressin V1a receptor) | IC50 (Cytochrome P450 1A2) | Ki (Cytochrome P450 1A2)

C[C@@H]1C[C@H]2[C@@H]3CCC4=CC(=O)C=C[C@]4(C)C3=CC[C@]2(C)[C@H]1C(=O)CN1CCN(c2cc(N3CCCC3)nc(N3CCCC3)n2)CC1 [TIRILAZAD]
7.41 µM: IC50 ([3]; read-out: IC50)
Not Active: IC50 (Substance-P receptor) | IC50 [1] | Ki [1] | IC50 [2] | Ki [2] | IC50 [4] | Ki [4] | IC50 [5] | Ki [5] | IC50 (Vasopressin V1a receptor) | IC50 (Cytochrome P450 1A2) | Ki (Cytochrome P450 1A2)

O=C(O)C(Cl)(Cl)Cl [TRICHLOROACETIC ACID]
Not Active: IC50 (Substance-P receptor) | IC50 [1] | Ki [1] | IC50 [2] | Ki [2] | IC50 [3] | IC50 [4] | Ki [4] | IC50 [5] | Ki [5] | IC50 (Vasopressin V1a receptor) | IC50 (Cytochrome P450 1A2) | Ki (Cytochrome P450 1A2)

CC(=O)O[C@H]1C[C@@H]2CC[C@@H]3[C@H](CC[C@@]4(C)[C@H]3C[C@H]([N+]3(C)CCCCC3)[C@@H]4OC(C)=O)[C@@]2(C)C[C@@H]1N1CCCCC1.[Br-] [VECURONIUM BROMIDE]
Not Active: IC50 (Substance-P receptor) | IC50 [1] | Ki [1] | IC50 [2] | Ki [2] | IC50 [3] | IC50 [4] | Ki [4] | IC50 [5] | Ki [5] | IC50 (Vasopressin V1a receptor) | IC50 (Cytochrome P450 1A2) | Ki (Cytochrome P450 1A2)

COc1cc(C(=O)NS(=O)(=O)c2ccccc2C)ccc1Cc1cn(C)c2ccc(NC(=O)OC3CCCC3)cc12 [ZAFIRLUKAST]
0.353 µM: IC50 ([3]; read-out: IC50)
Not Active: IC50 (Substance-P receptor) | IC50 [1] | Ki [1] | IC50 [2] | Ki [2] | IC50 [4] | Ki [4] | IC50 [5] | Ki [5] | IC50 (Vasopressin V1a receptor) | IC50 (Cytochrome P450 1A2) | Ki (Cytochrome P450 1A2)

Cc1cn([C@H]2C[C@H](N=[N+]=[N-])[C@@H](CO)O2)c(=O)[nH]c1=O [ZIDOVUDINE]
Not Active: IC50 (Substance-P receptor) | IC50 [1] | Ki [1] | IC50 [2] | Ki [2] | IC50 [3] | IC50 [4] | Ki [4] | IC50 [5] | Ki [5] | IC50 (Vasopressin V1a receptor) | IC50 (Cytochrome P450 1A2) | Ki (Cytochrome P450 1A2)

STANNOUS FLUORIDE
Not Active: IC50 (Substance-P receptor) | Ki (Substance-P receptor) | IC50 [1] | Ki [1] | IC50 [2] | Ki [2] | IC50 [3] | Ki [3] | IC50 [4] | Ki [4] | IC50 [5] | Ki [5] | IC50 (Vasopressin V1a receptor) | Ki (Vasopressin V1a receptor) | IC50 (Cytochrome P450 1A2) | Ki (Cytochrome P450 1A2)

THIMEROSAL
Not Active: IC50 (Substance-P receptor) | Ki (Substance-P receptor) | IC50 [1] | Ki [1] | IC50 [2] | Ki [2] | IC50 [3] | Ki [3] | IC50 [4] | Ki [4] | IC50 [5] | Ki [5] | IC50 (Vasopressin V1a receptor) | Ki (Vasopressin V1a receptor) | IC50 (Cytochrome P450 1A2) | Ki (Cytochrome P450 1A2)
